Source: US8097585B2, “Methods of treating inflammation by administration of heme oxygenase-1 and products of heme degradation” (priority 2002, dated 2012)
Structures can show the parent of a compound that is named as a salt.

Key:
IL-1β = experiment: Real time RT-PCR of graft muscularis after SITx, IL-1β; type: in vivo, LEW rats; conditions: BV 50 mmol/kg i.p. donor and recipient; 4 hours; versus saline-treated graft
Method: (§1) Small Intestinal Transplantation. Orthotopic small intestinal transplantation (SITx) was performed in syngeneic Lewis rats. SITx with caval drainage was performed using a previously described procedure (Murase et al., in Handbook of Animal Models in Transplantation Research, Cramer et al., Eds. CRC Press, Boca Raton, Fla., pp. 203-213 (1994)). […] The graft was perfused via the aortic segment with 5 ml chilled Ringer's lactate solution, and the intestinal lumen was irrigated with 20 ml of cold saline solution containing 0.5% neomycin-sulfate (Sigma, St. Louis, Mo.). […]
(§2) SYBR green real time RT-PCR. The effects of administration of biliverdin on transplant-induced pro-inflammatory and anti-inflammatory gene expression were assessed in muscularis extracts by RT-PCR Biliverdin ([…], i.p.) was administered to both the donor and recipient three hours preoperatively. […] Equal aliquots (5 μg) of total RNA from each sample were quantified by spectrophotometry (wavelength […]) and aliquoted at a concentration of 40 ng/μl. Peak mRNA expression was quantified in duplicate by SYBR Green two-step, real-time RT-PCR. […] Real-time PCR data were plotted as the ΔRn fluorescence signal versus the cycle number. […] Quantification of mRNA expression was normalized to GAPDH and calculated relative to control using the comparative CT method (Schmittgen et al., J. Biochem. Biophys. Methods 46(1-2):69-8, 2000). […]

ICAM-1 = experiment: Real time RT-PCR of graft muscularis after SITx, ICAM-1; type: in vivo, LEW rats; conditions: BV treatment
Method: as §1, §2

HO-1 = HO-1 expression in donor tissues and islets after CoPP; type: in vivo, mice; conditions: CoPP given to the donor animal; heart, kidney, pancreas, liver and spleen
Method: Induction of HO-1/Administration of biliverdin/bilirubin. When given to the donor, CoPPIX (20 mg/kg) was given 24 hours before islet isolation to induce HO-1 expression. To verify HO-1 expression in different organs after CoPP treatment, tissue samples are collected 24 hours after treatment and snap frozen in liquid nitrogen. Immunohistological analysis of HO-1 expression is performed using an anti-HO-1 antibody. CoPPIX (20 mg/kg) was administrated to the recipient intraperitoneally (i.p.) on day-1, 1, 3, 5 and 7. Biliverdin (50 μmol/kg) or bilirubin (8.5 μmol/kg) was given intraperitoneally to the donor one hour before islet isolation. For the recipient, biliverdin (50 μmol/kg) or bilirubin ([…]) was administered intraperitoneally either daily or twice per day from day-1 until day 13. No further treatment was given afterwards.
Semi-Quantitative PCR. RNA was extracted using Rneasy™ Mini Kits (Qiagen Inc., CA, USA) and reverse transcribed into cDNA with the RNA PCR Kit (TaKaRa, PanVera, Madison, Wis., USA). A total of 2 μg of cDNA was amplified in a 50 μl reaction mix containing 10 μM dNTPs, […] of 5′-prime and 3′-prime oligos, 2.5 U of LA-Taq polymerase (TaKaRa) and MgCl2, specific to each primer pair used. […] PCR products (10-20 μl) were analyzed in an ethidium bromide-stained 1% agarose gel.

Compound | reduction of IL-1b mRNA expression (IL-1β) | reduction of ICAM-1 expression in the graft (ICAM-1) | HO-1 expression in donor tissues (HO-1)
C=CC1=C(C)/C(=C/C2=NC(=C\c3[nH]c(/C=C4\NC(=O)C(C)=C4C=C)c(C)c3CCC(=O)O)/C(CCC(=O)O)=C2C)NC1=O [biliverdin, biliverdin dihydrochloride] | 30% | up to 30% | –
C=CC1=C(C)c2cc3[n-]c(cc4nc(cc5[n-]c(cc1n2)c(C)c5CCC(=O)[O-])C(CCC(=O)[O-])=C4C)c(C)c3C=C.[Co+2].[H+].[H+] [CoPP, Cobalt protoporphyrin] | – | – | HO-1 expression was observed in several different tissues
